ChEMBL document CHEMBL4825663 (J Med Chem, 2021)
Converted amounts (≈) assume the structure as drawn.

Test system: not listed separately
Assay: Aqueous solubility of compound at neutral pH
Format: physicochemical
Conditions: aqueous solution

Row | solubility [µg/mL] | SMILES
1 | 0.123 (≈ 0.218 µM) | COc1cc2c(cc1OC)CN(CCc1ccc(NC(=O)c3cccc4c(=O)c5cccc(OC)c5[nH]c34)cc1)CC2

Biological target: ATP-dependent translocase ABCB1 (Homo sapiens, UniProt P08183)
Assay: Inhibition of paclitaxel stimulated- P-gp ATPase activity (unknown origin)
Conditions: not given

ATP-dependent translocase ABCB1, sequence (P08183 whole entry): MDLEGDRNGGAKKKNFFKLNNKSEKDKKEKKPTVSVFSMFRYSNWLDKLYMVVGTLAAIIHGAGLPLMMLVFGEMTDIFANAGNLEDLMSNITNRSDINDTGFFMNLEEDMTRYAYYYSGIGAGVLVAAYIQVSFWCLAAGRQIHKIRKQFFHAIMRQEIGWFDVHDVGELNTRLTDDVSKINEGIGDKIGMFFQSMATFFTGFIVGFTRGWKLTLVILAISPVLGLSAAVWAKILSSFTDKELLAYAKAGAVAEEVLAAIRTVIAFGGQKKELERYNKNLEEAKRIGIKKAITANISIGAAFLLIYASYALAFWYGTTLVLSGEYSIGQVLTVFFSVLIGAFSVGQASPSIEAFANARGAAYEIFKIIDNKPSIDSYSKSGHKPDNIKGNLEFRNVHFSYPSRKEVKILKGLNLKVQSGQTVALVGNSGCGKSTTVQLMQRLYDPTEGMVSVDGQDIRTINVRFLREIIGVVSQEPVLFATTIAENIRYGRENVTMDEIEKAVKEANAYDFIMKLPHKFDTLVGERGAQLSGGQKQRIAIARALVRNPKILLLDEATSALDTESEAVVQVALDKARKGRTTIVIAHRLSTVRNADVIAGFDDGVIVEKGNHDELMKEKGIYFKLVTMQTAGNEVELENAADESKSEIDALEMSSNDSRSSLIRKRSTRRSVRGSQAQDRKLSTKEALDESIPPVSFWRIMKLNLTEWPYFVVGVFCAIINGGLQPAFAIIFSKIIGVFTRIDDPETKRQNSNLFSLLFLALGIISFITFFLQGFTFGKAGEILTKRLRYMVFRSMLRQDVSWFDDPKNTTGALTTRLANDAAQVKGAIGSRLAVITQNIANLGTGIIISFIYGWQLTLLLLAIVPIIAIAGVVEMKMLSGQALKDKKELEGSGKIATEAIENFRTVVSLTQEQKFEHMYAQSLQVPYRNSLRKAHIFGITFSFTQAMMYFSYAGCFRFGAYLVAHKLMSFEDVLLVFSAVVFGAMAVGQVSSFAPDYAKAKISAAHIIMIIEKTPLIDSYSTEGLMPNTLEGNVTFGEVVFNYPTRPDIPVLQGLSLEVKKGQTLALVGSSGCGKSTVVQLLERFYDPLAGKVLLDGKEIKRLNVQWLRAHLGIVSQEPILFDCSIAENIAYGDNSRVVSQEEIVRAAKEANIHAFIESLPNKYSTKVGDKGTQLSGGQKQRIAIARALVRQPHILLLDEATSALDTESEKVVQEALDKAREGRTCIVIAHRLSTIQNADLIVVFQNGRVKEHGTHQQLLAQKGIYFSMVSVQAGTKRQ

Row | SMILES | IC50 [nM]
2 | COc1cc2c(cc1OC)CN(CCc1ccc(NC(=O)c3cc(OC)c(OC)cc3NC(=O)c3cnc4ccccc4c3)cc1)CC2 | 32.7

Test system: MES-SA/Dx5
Assay: Selectivity index, ratio of EC50 for inhibition of P-gp (unknown origin) expressed in MES-SA/DX5 cells assessed as increase in paclitaxel-induced cytotoxicity in absence of compound to EC50 for inhibition of P-gp (unknown origin) expressed in MES-SA/DX5 cells assessed as increase in paclitaxel-induced cytotoxicity in presence of compound
Format: cell-based
Conditions: Homo sapiens

Row | SMILES | Ratio EC50
3 | COc1cc2c(cc1OC)CN(CCc1ccc(-n3nnc(-c4cc(OC)c(OC)cc4NC(=O)c4coc5ccccc5c4=O)n3)cc1)CC2 | 2.1
4 | COc1cc2c(cc1OC)CN(CCc1ccc(-n3nnc(-c4cc(OC)c(OC)cc4NC(=O)c4ccc(F)c(F)c4)n3)cc1)CC2 | 3.7
5 | COc1cc2c(cc1OC)CN(CCc1ccc(-n3nnc(-c4cc(OC)c(OC)cc4NC(=O)c4cc(=O)c5cc(C)ccc5o4)n3)cc1)CC2 | 73.4
6 | COc1cc2c(cc1OC)CN(CCc1ccc(-n3nnc(-c4cc(OC)c(OC)cc4NC(=O)c4cccnc4)n3)cc1)CC2 | 3
7 | COc1cc2c(cc1OC)CN(CCc1ccc(-n3nnc(-c4cc(OC)c(OC)cc4NC(=O)c4ccoc4)n3)cc1)CC2 | 3.5
8 | COc1cc2c(cc1OC)CN(CCc1ccc(-n3nnc(-c4cc(OC)c(OC)cc4NC(=O)c4ccccc4)n3)cc1)CC2 | 3.4
9 | COc1cc2c(cc1OC)CN(CCc1ccc(-n3nnc(-c4cc(OC)c(OC)cc4NC(=O)c4nccc5ccccc45)n3)cc1)CC2 | 1.8
10 | COc1cc2c(cc1OC)CN(CCc1ccc(-n3nnc(-c4cc(OC)c(OC)cc4NC(=O)c4ccc5ccccc5c4)n3)cc1)CC2 | 2.6
11 | COc1cc2c(cc1OC)CN(CCc1ccc(-n3nnc(-c4cc(OC)c(OC)cc4NC(=O)c4cc(=O)c5c(OC)cccc5o4)n3)cc1)CC2 | 49.9
12 | COc1cc2c(cc1OC)CN(CCc1ccc(-n3nnc(-c4cc(OC)c(OC)cc4NC(=O)c4cnc5ccccc5c4)n3)cc1)CC2 | 20.3
13 | COc1cc2c(cc1OC)CN(CCc1ccc(-n3nnc(-c4cc(OC)c(OC)cc4NC(=O)c4cncc5ccccc45)n3)cc1)CC2 | 3.3
14 | COc1cc2c(cc1OC)CN(CCc1ccc(-n3nnc(-c4cc(OC)c(OC)cc4NC(=O)c4ccsc4)n3)cc1)CC2 | 4.5
15 | COc1cc2c(cc1OC)CN(CCc1ccc(-n3nnc(-c4cc(OC)c(OC)cc4NC(=O)c4cccc5cccnc45)n3)cc1)CC2 | 4.3
16 | COc1cc2c(cc1OC)CN(CCc1ccc(-n3nnc(-c4cc(OC)c(OC)cc4NC(=O)c4ccc5ccccc5n4)n3)cc1)CC2 | 2.7
17 | COc1cc2c(cc1OC)CN(CCc1ccc(-n3nnc(-c4cc(OC)c(OC)cc4NC(=O)c4cc(=O)c5cc(F)ccc5o4)n3)cc1)CC2 | 39.3
18 | COc1cc2c(cc1OC)CN(CCc1ccc(-n3nnc(-c4cc(OC)c(OC)cc4NC(=O)c4cnccn4)n3)cc1)CC2 | 3
19 | COc1cc2c(cc1OC)CN(CCc1ccc(-n3nnc(-c4cc(OC)c(OC)cc4NC(=O)c4cc5ccccc5cn4)n3)cc1)CC2 | 3.5

Biological target: T1, Broad substrate specificity ATP-binding cassette transporter ABCG2 (Homo sapiens, UniProt Q9UNQ0)
T1 sequence (Q9UNQ0 whole entry): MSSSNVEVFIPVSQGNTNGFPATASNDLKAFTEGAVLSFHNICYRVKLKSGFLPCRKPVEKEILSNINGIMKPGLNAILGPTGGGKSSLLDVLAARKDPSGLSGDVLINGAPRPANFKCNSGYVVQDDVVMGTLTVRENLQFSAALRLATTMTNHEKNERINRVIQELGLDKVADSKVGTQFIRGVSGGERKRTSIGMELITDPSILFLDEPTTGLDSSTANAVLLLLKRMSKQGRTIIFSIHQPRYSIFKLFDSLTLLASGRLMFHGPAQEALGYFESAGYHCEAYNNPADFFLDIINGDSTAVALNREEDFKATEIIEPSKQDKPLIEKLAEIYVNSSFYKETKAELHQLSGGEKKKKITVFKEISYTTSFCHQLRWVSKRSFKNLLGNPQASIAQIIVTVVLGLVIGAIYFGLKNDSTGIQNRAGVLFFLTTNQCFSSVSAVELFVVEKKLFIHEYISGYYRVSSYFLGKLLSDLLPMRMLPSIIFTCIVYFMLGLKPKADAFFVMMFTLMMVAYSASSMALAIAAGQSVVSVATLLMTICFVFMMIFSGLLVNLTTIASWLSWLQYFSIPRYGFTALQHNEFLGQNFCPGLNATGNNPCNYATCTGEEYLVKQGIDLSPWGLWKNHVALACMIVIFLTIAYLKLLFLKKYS
Assay: Inhibition of sulfasalazine-stimulated BCRP ATP ase activity (unknown origin)
Conditions: not given

Row | SMILES | IC50 [nM]
20 | COc1cc2c(cc1OC)CN(CCc1ccc(NC(=O)c3cc(OC)c(OC)cc3NC(=O)c3cnc4ccccc4c3)cc1)CC2 | 183

Test system: not listed separately
Assay: Apparent permeability from apical to basolateral side in MDCK-II cells after 120 mins by LC-MS/MS analysis
Format: ADME, cell-based, Canis lupus familiaris
Conditions: dog

Row | Papp A→B at 2 h [×10⁻⁶ cm/s] | SMILES
21 | 1.1 | O[C@@H](COc1cccc2ncccc12)CN1CCN([C@@H]2c3ccccc3[C@@H]3[C@H](c4ccccc42)C3(F)F)CC1 [ZOSUQUIDAR]
22 | 0.1 | COc1cc2c(cc1OC)CN(CCc1ccc(NC(=O)c3cccc4c(=O)c5cccc(OC)c5[nH]c34)cc1)CC2

Row | SMILES | Papp A→B at 2 h [×10⁻⁶ cm/s]
23 | COc1cc2c(cc1OC)CN(CCc1ccc(NC(=O)c3cc(OC)c(OC)cc3NC(=O)c3cnc4ccccc4c3)cc1)CC2 | 1.1

Test system: not listed separately
Assay: Aqueous solubility of compound at pH 5.5
Format: physicochemical
Conditions: aqueous solution

Row | SMILES | solubility [µg/mL]
24 | COc1cc2c(cc1OC)CN(CCc1ccc(NC(=O)c3cc(OC)c(OC)cc3NC(=O)c3cnc4ccccc4c3)cc1)CC2 | 2500 (≈ 3870 µM)
